Results taken from patent publication US8329726B2, “Inhibitors of VEGF receptor and HGF receptor signaling” (MethylGene Inc., priority 2005, dated 2012).

What was measured:
[1] = test system: DU145; assay: DU145 scattering inhibition (HGF dependent scattering); format: cell-based; conditions: Homo sapiens, DU-145; HGF dependent scattering, DU145 cells; read-out: DU145 SCATTERING INHIB IC50
Source text: (§1) HGF has well known activity in terms of inducing scattering and migration (wound healing) (Wells et al., Cell Motil Cytoskeleton. 2005 November 62(3):180-94; Miura et al., Urology 2001 December 58(6):1064-9; Nishimura et al., Int J Urol. 1998 May 5(3):276-81; Wang et al., Mol Cancer Ther. 2003 November; 2(11):1085-92; and Christensen et al., Cancer Res. 2003 Nov. 1; 63(21):7345-55).

[2] = target: T1, VEGF receptor KDR (Homo sapiens, UniProt P35968); assay: In vitro receptor tyrosine kinase assay (DELFIA), VEGF receptor KDR; format: biochemical; conditions: read-out: VEGFR IC50
T1 construct: made in house; host or cells: Sf9 cells (Spodoptera frugiperda), baculovirus
Experimental: In the case of VEGF receptor KDR a 1.6-kb cDNA corresponding to the catalytic domain of VEGFR2 or KDR (Genbank accession number AF035121 amino acid 806 to 1356) was cloned into the Pst I site of the pDEST20 Gateway vector (Invitrogen) for the production of a GST-tagged version of that enzyme.
The GST-VEGFR2806-1356 protein was expressed in […] (Spodoptera frugiperda) upon infection with recombinant baculovirus construct. […] Cell pellets were frozen at −80° C. until purification was performed.
The supernatant (cell extract) was used as starting material for purification of GST-VEGFR2806-1356.
The supernatant was loaded onto a GST-agarose column (Sigma) equilibrated with PBS pH 7.3. Following a four column volume (CV) wash with PBS pH 7.3+1% Triton X-100 and 4 CV wash with buffer B (50 mM Tris pH 8.0, 20% glycerol and 100 mM NaCl), bound proteins were step eluted with 5 CV of buffer B supplemented with 5 mM DTT and 15 mM glutathion. GST-VEGFR2806-1356 enriched fractions from this chromatography step were pooled based on U.V. trace i.e. fractions with high O.D.280. Final GST-VEGFR2806-1356 protein preparations concentrations were about 0.7 mg/ml with purity approximating 70%.
(§2) The coated plates were washed and stored at 4° C. […] After incubation, the kinase reactions were quenched with EDTA and the plates were washed.

[3] = target: T2, recombinant human c-Met/HGF receptor (Homo sapiens, UniProt P08581); assay: In vitro receptor tyrosine kinase assay (DELFIA), c-Met/HGF receptor; format: biochemical; conditions: read-out: CMET IC50
T2 construct: His tag (pBlueBacHis2A vector); made in house; host or cells: Hi-5 cells (Trichoplusia ni), baculovirus
Experimental: Cell pellets were frozen at −80° C. until purification was performed.
as §2

[4] = test system: A549; assay: A549 wound healing inhibition (HGF dependent migration); format: cell-based; conditions: Homo sapiens, A549 cells, read-out: A549 WOUND HEALING INHIB IC50
Source text: as §1

T1 sequence (P35968 806-1356): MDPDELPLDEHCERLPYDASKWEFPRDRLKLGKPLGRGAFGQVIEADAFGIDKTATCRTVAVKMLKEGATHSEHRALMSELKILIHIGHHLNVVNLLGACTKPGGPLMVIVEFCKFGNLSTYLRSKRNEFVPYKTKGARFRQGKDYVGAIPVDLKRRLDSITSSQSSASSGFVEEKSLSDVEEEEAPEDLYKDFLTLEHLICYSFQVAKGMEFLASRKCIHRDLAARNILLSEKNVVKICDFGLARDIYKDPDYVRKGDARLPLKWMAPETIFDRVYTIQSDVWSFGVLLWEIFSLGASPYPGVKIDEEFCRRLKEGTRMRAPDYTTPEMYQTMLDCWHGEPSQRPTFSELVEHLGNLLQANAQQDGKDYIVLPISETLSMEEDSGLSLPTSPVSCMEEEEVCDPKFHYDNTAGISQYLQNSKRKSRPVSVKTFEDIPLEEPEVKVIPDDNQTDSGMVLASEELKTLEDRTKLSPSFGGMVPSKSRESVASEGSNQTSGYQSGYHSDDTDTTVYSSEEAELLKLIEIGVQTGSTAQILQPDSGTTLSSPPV
T2 sequence (P08581 1078-1337): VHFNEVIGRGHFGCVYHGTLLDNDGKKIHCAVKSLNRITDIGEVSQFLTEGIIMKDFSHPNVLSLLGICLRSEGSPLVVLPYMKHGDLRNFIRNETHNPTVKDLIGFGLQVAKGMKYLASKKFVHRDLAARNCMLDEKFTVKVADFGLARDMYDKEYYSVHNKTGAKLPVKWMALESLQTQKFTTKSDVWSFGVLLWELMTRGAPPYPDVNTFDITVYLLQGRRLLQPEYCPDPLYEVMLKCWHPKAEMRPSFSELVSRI

SMILES	IC50 [1]	IC50 [2]	IC50 [3]	IC50 [4]
Cn1cnc(-c2cc3nccc(Nc4ccc(NC(=O)C5CCN(c6ccccc6)C5=O)cc4F)c3s2)c1 (centres unmarked)	1 to 5 µM	0.25 to 0.5 µM	0.05 to 0.25 µM	< 1 µM
CN1CCN(C(=O)C2(C(=O)Nc3ccc(Oc4ccnc5cc(-c6cn(C)cn6)sc45)c(F)c3)CC2)c2ccccc21	1 to 5 µM	< 0.05 µM	> 0.5 µM	1 to 5 µM
CN(C(=O)C1(C(=O)Nc2ccc(Oc3ccnc4cc(-c5cn(C)cn5)sc34)c(F)c2)CC1)c1ccccc1	1 to 5 µM	0.05 to 0.25 µM	> 0.5 µM	< 1 µM
Cn1cnc(-c2cc3nccc(Oc4ccc(NC(=O)C5(C)CCN(c6ccccc6)C5=O)cc4F)c3s2)c1 (centres unmarked)	1 to 5 µM	0.25 to 0.5 µM	0.05 to 0.25 µM	1 to 5 µM
CN1CCN(Cc2ccc(-c3cc4nccc(Oc5ccc(NC(=O)C6CCN(c7ccccc7)C6=O)cc5F)c4s3)nc2)CC1 (centres unmarked)	1 to 5 µM	< 0.05 µM	0.05 to 0.25 µM	1 to 5 µM
CN1CCN(CCN(C)Cc2ccc(-c3cc4nccc(Oc5ccc(NC(=O)N6CCN(c7ccccc7)C6=O)cc5F)c4s3)cc2)CC1	1 to 5 µM	< 0.05 µM	< 0.05 µM	> 10 µM
CCn1cnc(-c2cc3nccc(Oc4ccc(NC(=O)C5(C(=O)N(C)c6ccc(F)cc6)CC5)cc4F)c3s2)c1	> 10 µM	< 0.05 µM	0.25 to 0.5 µM	> 10 µM
CN1CCN(Cc2ccc(-c3cc4ncnc(Oc5ccc(NC(=O)CC(=O)Nc6ccccc6)cc5F)c4s3)cc2)CC1	1 to 5 µM	< 0.05 µM	0.05 to 0.25 µM	> 10 µM
CN(c1ccc(NC(=O)C2CCN(c3ccccc3)C2=O)cc1F)c1ccnc2cc(-c3cn(C)cn3)sc12 (centres unmarked)	1 to 5 µM	> 0.5 µM	0.05 to 0.25 µM	1 to 5 µM
CN1CCN(Cc2ccc(-c3cc4nccc(Oc5ccc(NC(=O)C6CCN(c7ccccc7)C6=O)cc5F)c4s3)cc2)CC1 (centres unmarked)	1 to 5 µM	< 0.05 µM	0.05 to 0.25 µM	1 to 5 µM
CN1CCN(C(=O)CC(=O)Nc2ccc(Oc3ccnc4cc(-c5cn(C)cn5)sc34)c(F)c2)c2ccccc21	1 to 5 µM	< 0.05 µM	< 0.05 µM	1 to 5 µM
Cn1cnc(-c2cc3nccc(Oc4ccc(NC(=O)C5CCN(c6ccccc6F)C5=O)cc4F)c3s2)c1 (centres unmarked)	1 to 5 µM	0.25 to 0.5 µM	0.05 to 0.25 µM	< 1 µM
CCN(C(=O)CC(=O)Nc1ccc(Oc2ccnc3cc(-c4cn(CC)cn4)sc23)c(F)c1)c1ccccc1	1 to 5 µM	< 0.05 µM	0.05 to 0.25 µM	1 to 5 µM
Cn1cnc(-c2cc3nccc(Oc4ccc(NC(=O)C5CCN(c6cccnc6)C5=O)cc4F)c3s2)c1 (centres unmarked)	1 to 5 µM	0.25 to 0.5 µM	0.25 to 0.5 µM	1 to 5 µM
COc1cccc(Nc2cc3nccc(Oc4ccc(NC(=O)CC(=O)Nc5ccccc5)cc4F)c3s2)c1	1 to 5 µM	> 0.5 µM	0.05 to 0.25 µM	1 to 5 µM
CC(C)N(C(=O)CC(=O)Nc1ccc(Oc2ccnc3cc(C4=CCN(C)CC4)sc23)c(F)c1)c1ccccc1	> 10 µM	> 0.5 µM	0.25 to 0.5 µM	> 10 µM
Cn1ccnc1-c1cc2nccc(Sc3ccc(NC(=O)N4CCN(c5ccccc5)C4=O)cc3)c2s1	< 1 µM	0.05 to 0.25 µM	< 0.05 µM	< 1 µM
CCn1cnc(-c2cc3nccc(Oc4ccc(NC(=O)CC(=O)N5CCc6ccccc65)cc4F)c3s2)c1	< 1 µM	< 0.05 µM	< 0.05 µM	< 1 µM
CCn1cnc(-c2cc3nccc(Oc4ccc(NC(=O)CC(Nc5ccccc5)C(F)(F)F)cc4F)c3s2)c1 (centres unmarked)	1 to 5 µM	0.05 to 0.25 µM	0.05 to 0.25 µM	1 to 5 µM
CCn1cnc(-c2cc3nccc(Oc4ccc(NC(=O)CC(=O)N5CCOc6ccccc65)cc4F)c3s2)c1	< 1 µM	< 0.05 µM	< 0.05 µM	< 1 µM

Other lines, results leading:

IC50 [1]	IC50 [2]	IC50 [3]	IC50 [4]	SMILES
< 1 µM	< 0.05 µM	< 0.05 µM	1 to 5 µM	CN1CCN(CCN(C)Cc2ccc(-c3cc4nccc(Oc5ccc(NC(=O)C6CCN(c7ccccc7)C6=O)cc5F)c4s3)cc2)CC1 (centres unmarked)
< 1 µM	< 0.05 µM	< 0.05 µM	< 1 µM	CN(C)CCCN(C)Cc1ccc(-c2cc3nccc(Oc4ccc(NC(=O)CC(=O)N(C)c5ccccc5)cc4F)c3s2)cc1
< 1 µM	< 0.05 µM	< 0.05 µM	< 1 µM	Cn1cnc(-c2cc3nccc(Nc4ccc(NC(=O)C5(C(=O)Nc6ccc(F)cc6)CC5)cc4F)c3s2)c1
< 1 µM	< 0.05 µM	< 0.05 µM	1 to 5 µM	CN1CCN(CCN(C)Cc2ccc(-c3cc4nccc(Oc5ccc(NC(=O)C6(C(=O)Nc7ccc(F)cc7)CC6)cc5F)c4s3)cc2)CC1
< 1 µM	< 0.05 µM	< 0.05 µM	< 1 µM	CCn1cnc(-c2cc3nccc(Oc4ccc(NC(=O)C5CCN(c6ccccc6)C5=O)cc4F)c3s2)c1 (centres unmarked)
< 1 µM	< 0.05 µM	< 0.05 µM	< 1 µM	CN(C)CCn1cnc(-c2cc3nccc(Oc4ccc(NC(=O)N5CCN(c6ccccc6)C5=O)cc4F)c3s2)c1
< 1 µM	< 0.05 µM	< 0.05 µM	1 to 5 µM	CN1CCN(CCN(C)Cc2ccc(-c3cc4nccc(Oc5ccc(NC(=O)CC(=O)N(C)c6ccc(F)cc6)cc5F)c4s3)cc2)CC1
< 1 µM	< 0.05 µM	0.05 to 0.25 µM	1 to 5 µM	CN(C)[C@H]1CCN(Cc2ccc(-c3cc4nccc(Oc5ccc(NC(=O)CC(=O)Nc6ccccc6)cc5F)c4s3)cc2)C1
< 1 µM	< 0.05 µM	< 0.05 µM	1 to 5 µM	CN1CCN(Cc2ccc(-c3cc4nccc(Oc5ccc(NC(=O)CC(=O)Nc6ccccc6)cc5F)c4s3)nc2)CC1
< 1 µM	< 0.05 µM	< 0.05 µM	< 1 µM	CN1CCN(Cc2ccc(-c3cc4nccc(Oc5ccc(NC(=O)C6(C(=O)Nc7ccc(F)cc7)CC6)cc5F)c4s3)cc2)CC1
< 1 µM	0.05 to 0.25 µM	< 0.05 µM	< 1 µM	Cn1cnc(-c2cc3nccc(Nc4ccc(NC(=O)C5(C(=O)Nc6ccccc6)CC5)cc4F)c3s2)c1
< 1 µM	< 0.05 µM	0.05 to 0.25 µM	1 to 5 µM	O=C(Nc1ccc(Oc2ccnc3cc(-c4cn(CCN5CCCC5)cn4)sc23)c(F)c1)C1CCN(c2ccccc2)C1=O (centres unmarked)
< 1 µM	< 0.05 µM	< 0.05 µM	< 1 µM	CN1CCN(Cc2ccc(-c3cc4nccc(Oc5ccc(NC(=O)N6CCN(c7ccccc7)C6=O)cc5F)c4s3)cc2)CC1
< 1 µM	< 0.05 µM	< 0.05 µM	1 to 5 µM	O=C(CC(=O)Nc1ccc(Oc2ccnc3cc(-c4ccc(CN5CCNCC5)cc4)sc23)c(F)c1)Nc1ccccc1
< 1 µM	< 0.05 µM	< 0.05 µM	1 to 5 µM	CN1CC=C(c2cc3nccc(Oc4ccc(NC(=O)C5(C(=O)Nc6ccccc6)CC5)cc4F)c3s2)CC1
< 1 µM	< 0.05 µM	< 0.05 µM	< 1 µM	CN1CCN(Cc2ccc(-c3cc4nccc(Oc5ccc(NC(=O)C6(C(=O)Nc7ccccc7)CC6)cc5F)c4s3)cc2)CC1
< 1 µM	< 0.05 µM	< 0.05 µM	< 1 µM	O=C(CC(=O)Nc1ccc(Oc2ccnc3cc(-c4cccc[n+]4[O-])sc23)c(F)c1)Nc1ccccc1
< 1 µM	< 0.05 µM	< 0.05 µM	< 1 µM	Cn1cnc(-c2cc3nccc(Oc4ccc(NC(=O)N5CCN(c6ccc(F)cc6)C5=O)cc4F)c3s2)c1
< 1 µM	< 0.05 µM	< 0.05 µM	< 1 µM	O=C(Nc1ccc(Oc2ccnc3cc(-c4cn(CCN5CCCC5)cn4)sc23)c(F)c1)N1CCN(c2ccccc2)C1=O
< 1 µM	< 0.05 µM	< 0.05 µM	< 1 µM	Cn1ccnc1-c1cc2nccc(Oc3ccc(NC(=O)N4CCN(c5ccccc5)C4=O)cc3F)c2s1
< 1 µM	0.05 to 0.25 µM	< 0.05 µM	< 1 µM	CN1CC=C(c2cc3nccc(Oc4ccc(NC(=O)N5CCN(c6ccccc6)C5=O)cc4F)c3s2)CC1
